Measured values published in a melting point compilation (Tetko et al.; mined from patent text by program, amines drawn as free bases though some values may be those of a salt).

Compound	melting point
CC=CC(O)c1c(C(C)C)nc(C(C)C)c(CCCCC)c1-c1ccc(F)cc1 (centres undefined)	70 to 72 °C
O=C(Nc1cccnc1O)C1CCCC1	242 to 243 °C
O=C1NC(c2ccc(Cl)cc2)Nc2ccccc21 (centres undefined)	190 °C
CN1CCC2(CC1)NC(=O)N(c1ccc(C#N)c(C(F)(F)F)c1)C2=O	188 to 189 °C
C=CCC(CC)(NC)C(=O)c1ccc(OCCO)cc1 (centres undefined)	80 to 82 °C
C=Cc1ccc(NC(=O)OC)nc1	146 to 148 °C
CCOC(=NS(=O)(=O)c1ccccc1OC(F)F)OCC	80 to 81 °C
ClC(Cl)c1cccc2nnsc12	131 to 133 °C
CC1(C)OC(=S)Nc2ccc(-c3sccc3C#N)cc21	194 to 195 °C
Nc1nc(N2CCNCC2)c2nc(-c3ccccc3)c(N)nc2n1	150 to 155 °C
Cn1ncc2c1-c1c(Oc3cc4c(cc3[N+](=O)[O-])OCO4)sc(C(N)=O)c1CC2	230 to 231 °C
CON=Cc1ccc2c(c1)c1c(n2CCc2cccc(F)n2)CC[C@@H](NC(=O)C2CC2)C1	223 to 225 °C
COC(=O)c1nc2cc(I)ccc2c(O)c1C(=O)OC	243 to 244 °C
Nc1c(Cl)cc(C(O)CNCCCCCOCCCc2ccc(C(=O)O)o2)cc1Cl (centres undefined)	89 to 91 °C
CCCc1nc2c(N)nc3ccccc3c2n1CCCCCC(=O)N(C)OC	134 to 135 °C
c1ccc(N2CCNNCC2)cc1	211 to 218 °C
CCOP(=O)(OCC)c1sc2ccccc2c1P(=O)(OCC)OCC	67 °C
C=CCO[C@H]1[C@@H](OCc2ccccc2)[C@@H](OCc2ccccc2)[C@H](OCc2ccccc2)[C@@H](OCc2ccccc2)[C@@]1(CCC)OC(=O)CCC (racemic)	115 °C
O=C1C(=CO)CSc2c(Cl)cccc21	97 to 99 °C

Compound	melting point
CC1(C(=O)NCCc2ccc(CCC(=O)O)cc2)C=CN=N1 (centres undefined)	202 to 205 °C
CON1C(C)(C)CC(OC(=O)CCc2cc(-n3nc4ccc(Cl)cc4n3)c(O)c(C(C)(C)C)c2)CC1(C)C	132 to 137 °C
S=C(N1CCCCC1)C1(c2ccccn2)CCCS1 (centres undefined)	90 °C
CCCCCc1cc(O)c2c(c1)OC(C)(C)C1=C2CC(C)(C)S1	109 to 110 °C
CN(C)CCCCNC(=O)c1ccccc1-c1nnc(CSCCOc2ccccc2)o1	62 to 65 °C
Cc1sc2c(c1C)C(c1ccc(Cl)cc1)=NC(CC(=O)NCCN)c1nnc(C)n1-2 (centres undefined)	142 to 146 °C
CC(C)(C)C(=O)CC(=O)c1ncn2c1c(=O)n(C(C)(C)C)c1ccccc12	190 to 191 °C
CCOC(=O)c1nn(Cc2ccc(OC)c(OC)c2)c2cc(OC)c(OC)cc12	138 to 141 °C
CSc1n[nH]c(-c2cc(C(C)(C)C)c(O)c(C(C)(C)C)c2)n1	271 to 272 °C
Brc1ccc2c(c1)CCC=C2n1ccnc1	58 to 64 °C
CCOC(=O)COc1ccc(Br)cc1C(C)=O	66 to 68 °C
O=C1CCC(c2ccc(OCCBr)cc2)CC1	91 to 92 °C
O=[N+]([O-])c1cnccc1Nn1ccc2ccccc21	170 to 172 °C
O=C1NC(=O)C2CCCCC12 (centres undefined)	132 to 136 °C
CN(C)C(=O)N(C)C(=O)Nc1ccc(Cl)cc1	94.5 to 95 °C
CCCCCc1cc(C(=O)O)c(C)o1	47 to 48 °C
O=C1c2c(O)ccc(O)c2C(=O)c2c(NCCN3CCOCC3)ccc(NCCN3CCOCC3)c21	241 to 243 °C
C=CC(CC(O)C(CC(C)C)NC(=O)C(Cc1c[nH]cn1)NC(=O)C(Cc1ccccc1)Cc1ccccc1)C(C)C (centres undefined)	120 °C
NC(=O)c1ccccc1N1CCc2cc(Br)ccc21	120 to 122 °C

Compound	melting point
O=C(O)C(=O)c1cn(Cc2ccc(F)cc2)c2ccc(-c3ccccc3)cc12	165 to 166 °C
Nc1ccc(C(=O)OCCOC(=O)CC[C@@H](C(=O)O)n2c3ccccc3c3ccccc32)cc1	65 °C
Cc1c([N+](=O)[O-])ccc(N)c1C(=O)O	183 to 184 °C
CC(=O)OCc1cn(C)c2ccccc2c1=O	142 to 146 °C
CCc1nc2c(cnn2CC)c(NC2CCOCC2)c1CNC(=O)c1cc(C)cc(C(=O)OC)c1	89 to 93 °C
CCCCCCC1=CC(O)(C(Br)Br)NC1=O (centres undefined)	106 to 109 °C
CC(=O)N1c2ccc(N(C)C)cc2Sc2cc(N(C)C)ccc21	137 °C
NCCCCCCc1ccc(Cl)cc1	71 °C
Nc1cnc(Br)c(Cl)n1	120 to 122 °C
Cc1c(Cc2ccccc2)oc2cc(O)c(O)cc12	95.5 to 98 °C
[N-]=[N+]=C(C(=O)CCc1ccc(S(=O)(=O)Cl)cc1)C(=O)CCc1ccc(S(=O)(=O)Cl)cc1	121 to 122 °C
CCCc1c(OCC(O)CSc2ccc(CC(=O)OC)c(Cl)c2Cl)ccc(C(C)=O)c1O (centres undefined)	85 to 88 °C
CC(C)Cn1cnc2c(N)nc3cc(CCc4ccccc4)ccc3c21	172 to 173 °C
CCOC(=O)C1=C(C)NC2=C(C(=O)OC2)C1c1ccccc1[N+](=O)[O-] (centres undefined)	220 to 222 °C
CCOC(=O)C(C=O)Cc1ccc(C)nc1 (centres undefined)	142 to 144 °C
CCCCCCCCCCCCCCCCCCCC(=O)Nc1ccn(C2OC(CO)C(O)C2O)c(=O)n1 (centres undefined)	138 to 142 °C
O=C1CCc2sccc21	87 to 88 °C
Cc1cc(CO)n(CCCOc2cc3c(cc2C)OC2(CC(C)(C)c4cc(O)c(C)cc4O2)CC3(C)C)n1 (centres undefined)	208 to 210 °C

Results, then the molecule that gave them:

melting point	Compound
50 to 51 °C	Cn1nc(-c2cc(Cl)c(F)cc2F)c(Cl)c1C(F)(F)F
164 to 165 °C	COc1ccc(/C=C/C(=O)C2C(=O)CC(c3ccc(OC)cc3)C([N+](=O)[O-])C2c2ccccc2)cc1 (centres undefined)
136 to 138 °C	CCCCc1nc(C(F)(F)F)c(CO)n1Cc1ccc(-c2ccccc2C#N)cc1
70 to 73 °C	CC(CCNCCOc1cccc2[nH]ccc12)c1c[nH]c2ccccc12 (centres undefined)
> 280 °C	COc1cc(C)c(/C=C/c2nc3c(c(=O)n(C)c(=O)n3C)n2C)cc1C
218 to 220 °C	C=CCN1C(C(=O)Nc2coc3ccccc3c2=O)C(=O)c2ccccc2S1(=O)=O (centres undefined)
178 to 181 °C	COC(=O)CCc1ccc(Oc2ccc(-c3ccc(C(=N)N)cc3)nn2)cc1
201 to 204 °C	O=C1NC(=O)C(Cc2ccc3oc(Cc4ccc(O)cc4)nc3c2)S1 (centres undefined)
162 to 165 °C	COc1c(-c2ccc3cc(NS(C)(=O)=O)ccc3c2)cc(-n2ccc(=O)[nH]c2=O)cc1C(F)(F)C(F)(F)F
133 to 142 °C	CN1CCC(C2(O)c3ccc(Cl)cc3Sc3ccc(F)cc32)CC1 (centres undefined)
> 300 °C	CCOC(=O)c1cnc2c3cc(NC(=O)Nc4ccccc4)ccc3c(C)cn2c1=O
277 to 281 °C	Cc1nc(NCc2ccccc2C)c2nc(-c3ccccc3)cc-2[nH]1
207 to 208 °C	O=C(NNc1nc(-c2ccccc2)c2cc(Cl)ccc2n1)C(F)(F)F
173 to 174 °C	NS(=O)(=O)c1ccc(-n2nc(C(F)(F)F)c(C3CC3)c2-c2ccccc2)cc1
154 °C	COc1cccc(-c2ccc3c(C(=O)Nc4cccnc4)c(OC)ccc3c2)c1
87 to 89 °C	FC(F)(F)C(F)(F)Oc1ccc(-c2nnco2)cc1
95 to 97 °C	Cc1ccc(S(=O)(=O)OCC2Cc3c(Cl)cc4c(c3O2)CCC4)cc1 (centres undefined)
99 to 101 °C	Cc1cc(NC(=O)C(=O)N(C)Cc2ccccc2)cc(C)c1S(=O)(=O)C[N+](=O)[O-]
161 to 165 °C	O=c1[nH]c2cc(Cl)cc(Cl)c2c(=O)n1Cc1cccc(Br)c1
> 260 °C	COc1cc(OC)c(-c2nccs2)cc1/C=C/C(=O)c1ccc(C(=O)O)cc1
155 °C	Fc1ccc(-c2nc3ccccn3c2-c2ccnc(-c3ccc(CN4CCCC4)cc3)c2)cc1F
110 to 111 °C	Cc1oc(-c2ccccc2)nc1COc1ccc(CCc2oc(-c3ccccc3)nc2CCC(=O)O)cc1

melting point	Compound
> 200 °C	O=C(c1cccs1)c1cnn2c(-c3cccc(N4CCCC4=O)c3)ccnc12
160 to 163 °C	COc1ccc(-c2c(CC(=O)O)c(-c3ccccc3)nn2-c2ccccc2)cc1
77 to 79 °C	CCOC(=O)C(C)OCc1cc2nc(Cl)ccc2n1S(=O)(=O)c1ccc2nsnc2c1 (centres undefined)
138 to 140 °C	O=C1C=CC(=O)N1c1cccc(Oc2cccc(Oc3cccc(N4C(=O)C=CC4=O)c3)c2)c1
257 to 258 °C	O=C1Nc2cccc(/C=C/c3ccccc3Cl)c2/C1=C/c1ccc[nH]1
150 °C	Cc1cc(C)cc(NCc2ccc3nc(NC4CCNC(CCN5CCOCC5)C4)n(Cc4nc(C)ccc4O)c3c2)c1 (centres undefined)
> 280 °C	CCn1c(=O)c2[nH]c(/C=C/c3cc(F)cc(F)c3)nc2n(CC)c1=O
131 to 134 °C	CC(C)c1c(Sc2ccccc2)n(CC2CC=CC2)c(=O)[nH]c1=O
201 to 202 °C	Cc1cc(NS(=O)(=O)c2cccs2)c2[nH]c(C3=NCCS3)cc2c1C
150 to 152 °C	CN(C)S(=O)(=O)c1ccc2c(c1)C(O)c1ccccc1C=C2 (centres undefined)
83 to 86 °C	COc1ccc(C(=NOC(C)=O)c2ccccc2F)c(O)c1C
137 to 139 °C	CCCOc1ccc(S(C)(=O)=O)cc1-c1nc(OC)c2[nH]nc(CC)c2n1
77 to 78 °C	O=C1c2ccccc2C(=O)N1CCCCOc1ccccn1
251 °C	CCCc1nc2ccnn2c(O)c1Cc1ccc(-c2ccccc2C#N)cc1
192 to 195 °C	O=C(NS(=O)(=O)C=Cc1ccc([N+](=O)[O-])cc1)c1ccccc1
306 °C	CNc1nc(Nc2ccc(Cl)c(Cl)c2)ncc1NC(=O)Oc1ccccc1
207 °C	CCOC(=O)c1c(N2CCN(C(=O)c3ccco3)CC2)c2cc(F)cnc2[nH]c1=O
152 to 153 °C	N#CCCNC(=O)c1cccc(-c2ccc3c(c2)N(Cc2cc(Cl)ccc2Cl)CC3)c1
55 to 57 °C	FC(F)(F)c1onc(-c2ccc(Cl)o2)c1-c1ccccc1
232 °C	COc1cc(-c2nccn2N=Cc2ccc(N(C)C)cc2)cc(OC)c1OC
154 to 156 °C	Fc1ccc(C=Cc2ccc(C3COC(c4c(F)cccc4F)=N3)cc2)cc1 (centres undefined)
